Measured values reported in publication PMC9527314, “Structural insights into the binding of zoledronic acid with RANKL via computational simulations” (Frontiers in Molecular Biosciences, 2022).

Target: T1, human RANKL trimer (Homo sapiens, UniProt O14788)
T1 construct: gene TNFSF11; recombinant human RANKL trimer protein from ACROBiosystems; homotrimer; amine-coupled to CM5 chip
T1 sequence (O14788 140-317 limits assumed): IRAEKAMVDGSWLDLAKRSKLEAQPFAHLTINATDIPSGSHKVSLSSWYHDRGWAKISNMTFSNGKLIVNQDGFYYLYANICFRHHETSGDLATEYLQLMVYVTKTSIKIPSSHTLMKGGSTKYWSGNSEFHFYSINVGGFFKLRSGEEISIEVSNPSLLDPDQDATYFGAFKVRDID
Experiment: SPR (Biacore T200), RANKL immobilised on CM5 chip, steady-state fit
Assay type: binding

Kd: 228 µM
SMILES: O=P(O)(O)C(O)(Cn1ccnc1)P(=O)(O)O [Zoledronic acid]
